According to patent publication EP1167342A1, “Novel substituted nitrocatechols, their use in the treatment of some central and peripheral nervous system disorders and pharmaceutical compositions containing them” (Portela & Ca., S.A., priority 2000, dated 2002):

Legend:
Brain COMT = assay: Ex vivo COMT activity in mouse brain homogenates after administration of test compound by gastric tube; set-up: species or system NMRI mice; details: for Brain COMT (% of control) 1h / Brain COMT (% of control) 6h: homogenates of mice brain, dose not given, means±S.E.M. of 4-8 experiments; for Brain COMT (% of control) 1h: 1 h after administration by gastric tube; for Brain COMT (% of control) 6h: 6 h after administration by gastric tube
COMT = biological target: T1, COMT (Homo sapiens, UniProt P21964); assay: COMT activity in intact SK-N-SH cells (methylation of adrenaline to metanephrine, HPLC with electrochemical detection); assay type: cell-based; details: concentration of test compound 100 nM, means ±SEM of n=4-8
T1 construct: COMT activity was evaluated in cell monolayers by the ability to methylate adrenaline; host or cells: SK-N-SH
T1 sequence (P21964 1-271): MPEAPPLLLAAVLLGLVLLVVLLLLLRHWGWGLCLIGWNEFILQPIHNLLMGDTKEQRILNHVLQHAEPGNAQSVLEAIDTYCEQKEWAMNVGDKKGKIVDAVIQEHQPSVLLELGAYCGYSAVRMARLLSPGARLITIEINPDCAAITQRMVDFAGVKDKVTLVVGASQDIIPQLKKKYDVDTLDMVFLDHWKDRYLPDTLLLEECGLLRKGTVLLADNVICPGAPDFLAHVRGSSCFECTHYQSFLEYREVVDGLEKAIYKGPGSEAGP

Liver COMT = assay: Ex vivo COMT activity in mouse liver homogenates after administration of test compound by gastric tube; set-up: species or system NMRI mice; details: for Liver COMT (% of control) 1h / Liver COMT (% of control) 6h: homogenates of mice liver, dose not given, means±S.E.M. of 4-8 experiments; for Liver COMT (% of control) 1h: 1 h after administration by gastric tube; for Liver COMT (% of control) 6h: 6 h after administration by gastric tube

Compound	Brain COMT (% of control) 1h (Brain COMT)	Brain COMT (% of control) 6h (Brain COMT)	COMT activity (% of control) (COMT)	Liver COMT (% of control) 1h (Liver COMT)	Liver COMT (% of control) 6h (Liver COMT)	activity in the brain (Brain COMT; conclusion, statement in words)	potency upon liver COMT compared with brain COMT (Liver COMT; mice, after oral administration, statement in words)
O=C(COc1ccccc1)c1cc(O)c(O)c([N+](=O)[O-])c1 [Compound 8, 1-(3,4-Dihydroxy-5-nitro-phenyl)-2-phenoxy-ethanone]	61.0±4.0 % of control	104.4±6.2 % of control	8.6±0.1 % of control	22.0±3.7 % of control	49.6±9.4 % of control		
CCOC(=O)C1CCN(CCC(=O)c2cc(O)c(O)c([N+](=O)[O-])c2)CC1.Cl [Compound 17, 1-[3-(3,4-Dihydroxy-5-nitro-phenyl)-3-oxo-propyl]-piperidine-4-carboxylic acid ethyl ester hydrochloride]	96.0±5.0 % of control	109.0±14.0 % of control	7.7±0.5 % of control	36.8±2.3 % of control	69.6±8.9 % of control		
COc1ccc(OCC(=O)c2cc(O)c(O)c([N+](=O)[O-])c2)cc1 [Compound 9, 1-(3,4-Dihydroxy-5-nitro-phenyl)-2-(4-methoxy-phenoxy)-ethanone]	59.0±6.0 % of control	93.0±9.0 % of control	12.8±0.4 % of control	29.0±1.0 % of control	35.0±6.0 % of control		
CCN(CC)C(C)C(=O)c1cc(O)c(O)c([N+](=O)[O-])c1.Cl (stereo not drawn) [Compound 7, 2-Diethylamino-1-(3,4-dihydroxy-5-nitro-phenyl)-propan-1-one hydrochloride]	74.0±12.0 % of control	126.0±8.0 % of control	9.0±0.2 % of control	38.4±2.8 % of control	57.1±4.9 % of control		
CC1CN(CC(=O)c2cc(O)c(O)c([N+](=O)[O-])c2)CC(C)O1.Cl (stereo not drawn) [Compound 11, 1-(3,4-Dihydroxy-5-nitro-phenyl)-2-(2,6-dimethyl-morpholin-4-yl)-ethanone hydrochloride]	80.0±5.0 % of control	103.0±7.0 % of control	14.8±1.3 % of control	38.0±5.0 % of control	73.0±10.0 % of control		
O=C(COc1ccc2ccccc2c1)c1cc(O)c(O)c([N+](=O)[O-])c1 [Compound 10, 1-(3,4-Dihydroxy-5-nitro-phenyl)-2-(naphthalen-2-yloxy)-ethanone]	83.0±5.0 % of control	119.0±13.0 % of control	2.0±0.1 % of control	17.3±2.7 % of control	38.7±4.7 % of control	limited activity in the brain	much more potent upon liver COMT than brain COMT
Cl.O=C(CN1CCCCCC1)c1cc(O)c(O)c([N+](=O)[O-])c1 [Compound 1, 2-Azepan-1-yl-1-(3,4-dihydroxy-5-nitro-phenyl)-ethanone hydrochloride]	45.0±15.0 % of control	102.0±19.0 % of control	4.3±0.6 % of control	40.8±6.4 % of control	49.9±2.2 % of control		
Cl.Cl.Cl.Cl.O=C(CCN1CCN(c2ncccn2)CC1)c1cc(O)c(O)c([N+](=O)[O-])c1 [Compound 23, 1-(3,4-Dihydroxy-5-nitro-phenyl)-3-(4-pyrimidin-2-yl-piperazin-1-yl)-propan-1-one tetrahydrochloride]	87.0±6.0 % of control	123.0±12.0 % of control	4.4±0.9 % of control	30.0±2.5 % of control	56.3±6.0 % of control		
CC1CCCCN1CCC(=O)c1cc(O)c(O)c([N+](=O)[O-])c1.Cl (stereo not drawn) [Compound 26, 1-(3,4-Dihydroxy-5-nitro-phenyl)-3-(2-methyl-piperidin-1-yl)-propan-1-one hydrochloride]	69.8±3.2 % of control	89.6±13.4 % of control	4.8±0.4 % of control	18.3±2.9 % of control	55.2±4.7 % of control		
CC1CCCCN1CC(=O)c1cc(O)c(O)c([N+](=O)[O-])c1.Cl (stereo not drawn) [Compound 6, 1-(3,4-Dihydroxy-5-nitro-phenyl)-2-(2-methyl-piperidin-1-yl)-ethanone hydrochloride]	37.0±3.3 % of control	66.0±2.6 % of control	12.2±1.7 % of control	57.6±5.8 % of control	99.9±10.3 % of control		
CC1CC(C)CN(CC(=O)c2cc(O)c(O)c([N+](=O)[O-])c2)C1.Cl (stereo not drawn) [Compound 12, 1-(3,4-Dihydroxy-5-nitro-phenyl)-2-(3,5-dimethyl-piperidin-1-yl)-ethanone hydrochloride]	32.0±2.0 % of control	84.0±6.0 % of control	15.4±1.8 % of control	33.0±2.0 % of control	52.0±13.0 % of control		
